Measured values published in patent US11672868B2, “Bicyclic peptide ligands specific for MT1-MMP” (priority 2014, dated 2023).
Where two headings read alike, the source gives them in different places. Marks after values point to notes of the source that are not given here. Numbered stars: 1 amine (or outer) side, 2 acyl side, 3 side chain; on linkers, the order of the positions; unused ones are H or OH. Bridge positions count the residues as written; N and C are the ends. Square brackets hold non-standard residues; d marks the D form. Peptide text beside a SMILES is read from it. I, II: the chains in the order shown. * marks the point of attachment. X3 = COc1cc2cc(c1Cl)N(C)C(=O)C[C@H](OC(=O)[C@H](C)N(C)C(=O)CCSSCCCC(=O)*)[C@]1(C)O[C@H]1[C@H](C)[C@@H]1C[C@@](O)(NC(=O)O1)[C@H](OC)/C=C/C=C(\C)C2; Dolaproine = CO[C@@H]([C@@H]1CCCN1)[C@@H](C)C(=O)O; Dil = CC[C@H](C)[C@H](NC)[C@@H](CC(=O)O)OC; Phe(4-Br) = N[C@@H](Cc1ccc(Br)cc1)C(=O)O; 1Nal = N[C@@H](Cc1cccc2ccccc12)C(=O)O; TBMB = c1c(C[*:1])cc(C[*:3])cc1C[*:2]; PABC = O=C(OCc1ccc(N[*:1])cc1)[*:2]; Glutaryl = O=C(CCCC(=O)[*:2])[*:1]; X4 = C[C@@H](N*)[C@@H](O)c1ccccc1; Cit = NC(=O)NCCC[C@H](N)C(=O)O; Tle = CC(C)(C)[C@H](N)C(=O)O; NMeV = CN[C@H](C(=O)O)C(C)C; Sar = CNCC(=O)O

Key:
[1] = Plasma stability, quantitative LC-MS (Method #2); format: in vitro ADME, human; settings: human, human plasma, 37° C.; sentence prints mouse plasma; read-out: half-life of the peptide in plasma (FIG. 3B, human plasma stability) (converted)
Method: […] […] Prior to LC-MS analysis, samples were defrosted, and mixed with 3 volumes (here, 120 μL) of 1:1 acetonitrile/MeOH water. The milky suspensions were centrifuged for 30 min at 13000 rpm, and peptide-containing supernatants were quantitated for doubly/triply charged species and MS/MS fragments thereof using a Waters Xevo TQ-D instrument, while using a plasma extracted standard curve of the same peptides as a reference. The half-life of degradation in plasma was used to assess the comparative stability of the molecules.

[2] = Plasma stability, quantitative LC-MS (Method #2); format: in vitro ADME, mouse; settings: ex vivo mouse plasma at 37° C., Method #2 (FIG. 1, FIG. 3A); read-out: half-life of the peptide in mouse plasma (converted)
Method: To obtain plasma stability of bicyclic peptides quantitatively, peptide stock solutions (200 μM in DMSO) were mixed with plasma (human or mouse), such that final concentrations were 10 μM. 40 μL samples were taken periodically up to 8 hrs and frozen at −80° C. Prior to LC-MS analysis, samples were defrosted, and mixed with 3 volumes (here, 120 μL) of 1:1 acetonitrile/MeOH water. The milky suspensions were centrifuged for 30 min at 13000 rpm, and peptide-containing supernatants were quantitated for doubly/triply charged species and MS/MS fragments thereof using a Waters Xevo TQ-D instrument, while using a plasma extracted standard curve of the same peptides as a reference. The half-life of degradation in plasma was used to assess the comparative stability of the molecules.

[3] = Mouse pharmacokinetics, single intravenous dose; format: in vivo; settings: male CD1 mice, single intravenous 5.925 mg/kg, mean
Method: Mouse pharmacokinetics were acquired using bicyclic peptide 17-69-04-N004, which was dosed to one group of 12 male CD1 mice as a single intravenous, 5.925 mg/kg doses as a 5 mL/kg bolus of a 1.19 mg/mL solution. […] Blood samples were taken from two animals per time-point, via cardiac puncture under terminal anaesthesia, at 0.08, 0.5, 1, 2 and 4 hours post-dose, and transferred to EDTA tubes for plasma generation. Plasma samples were immediately frozen at −20 C. For analysis, samples were thawed rapidly and 50 μL aliquots were treated with 3 volumes of extraction solvent (2:9:9 mixture of 10 mM ammonium bicarbonate, pH 8, acetonitrile and methanol, containing an analytical internal standard). Precipitated proteins were removed by centrifugation and the supernatant was analysed by LC-MS/MS. Quantification of the samples was by reference to a calibration line prepared in control mouse plasma. Pharmacokinetic parameters were determined by non-compartmental analysis using the software package PK Solutions 2.0 from Summit Research Services.
Cmax: Maximum measured concentration;
Tmax: Time at which maximum concentration was measured;
AUC 0-t: Area under the plasma drug concentration/time curve from 0 minutes to last quantifiable data point; and
AUC 0-∞: Area under the plasma drug concentration/time curve from 0 minutes extrapolated beyond the final data point based on the terminal half-life.

[4] = system: HT-1080 xenograft tumours; test: Efficacy in HT-1080 xenograft mice; format: in vivo, mouse; settings: HT1080 xenograft
Method: Balb/c nude mice bearing subcutaneous HT-1080 xenograft tumours were treated with BDCs or vehicle (PBS). BDCs were dosed 3 times weekly for 2 weeks, dosing initiated when tumours measured approx. 150-200 mm^3. Mice were monitored, and measurements of tumour volume and body weight recorded 3 times a week.

[5] = system: human lung squamous cell carcinoma line EBC-1; test: Efficacy in EBC-1 xenograft mice; format: in vivo, mouse; settings: mouse bearing EBC-1 tumours; ± 95% confidence limit
Method: In vivo efficacy of BT17BDC-17, BT17BDC-18, BT17BDC-19 and BT17BDC-20 All BDCs containing the stabilised bicycle core sequence were tested for their efficacies in in vivo mouse xenograft models, using the human lung squamous cell carcinoma line EBC-1.
The area under the curve (AUC) of tumour volume over time and BDC was taken and plotted against the corresponding dose group (FIG. 13).

Question: With `C[C@H](NC(=O)CN(C)C(=O)CN(C)C(=O)CN(C)C(=O)CN(C)C(=O)CN(C)C(=O)CN(C)C(=O)CN(C)C(=O)CN(C)C(=O)CN(C)C(=O)CN(C)C(=O)CN)C(=O)N[C@H]1CSCc2cc3cc(c2)CSC[C@H](NC(=O)[C@@H](C)NC(=O)[C@H](Cc2cccc4ccccc24)NC(=O)[C@H](CCC(=O)O)NC(=O)[C@H](CC(N)=O)NC(=O)[C@@H](C)NC1=O)C(=O)N[C@@H](CCC(=O)O)C(=O)N[C@@H](CC(=O)O)C(=O)N[C@@H](Cc1ccccc1)C(=O)N[C@@H](Cc1ccc(Br)cc1)C(=O)N[C@@H](CC(=O)O)C(=O)N[C@@H](C(C)(C)C)C(=O)N[C@H](C(N)=O)CSC3` [17-69-07-N244, G-Sar10-A-(17-69-07) D-Ala1 1Nal4 D-Ala5 4BrPhe9 tBuGly11] (H-G[Sar][Sar][Sar][Sar][Sar][Sar][Sar][Sar][Sar][Sar]AC[dA]NE[1Nal][dA]CEDF[Phe(4-Br)]D[Tle]C-NH2; linker 13-19-26 via TBMB; C-terminus assumed) as the molecule, how does the half-life at 10 μM [1] read?
Answer: Its half-life at 10 μM is > 20 h.

Question: And the half-life at 10 μM [2]?
Answer: The half-life at 10 μM was > 20 h.

Question: For `C[C@H](NC(=O)CN(C)C(=O)CN(C)C(=O)CN(C)C(=O)CN(C)C(=O)CN(C)C(=O)CN(C)C(=O)CN(C)C(=O)CN(C)C(=O)CN(C)C(=O)CN(C)C(=O)CN)C(=O)N[C@H]1CSCc2cc3cc(c2)CSC[C@H](NC(=O)[C@@H](C)NC(=O)[C@H](Cc2cccc4ccccc24)NC(=O)[C@H](CCC(=O)O)NC(=O)[C@H](CC(N)=O)NC(=O)[C@@H](C)NC1=O)C(=O)N[C@@H](CCC(=O)O)C(=O)N[C@@H](CC(=O)O)C(=O)N[C@@H](Cc1ccccc1)C(=O)N[C@@H](Cc1ccc(O)cc1)C(=O)N[C@@H](CC(=O)O)C(=O)N[C@@H](C(C)(C)C)C(=O)N[C@H](C(N)=O)CSC3` [17-69-07-N231, G-Sar10-A-(17-69-07) D-Ala1 1Nal4 D-Ala5 tBuGly11] (H-G[Sar][Sar][Sar][Sar][Sar][Sar][Sar][Sar][Sar][Sar]AC[dA]NE[1Nal][dA]CEDFYD[Tle]C-NH2; linker 13-19-26 via TBMB; C-terminus assumed), which half-life at 10 μM [1] is on record?
Answer: The half-life at 10 μM was > 20 h.

Question: And the half-life at 10 μM [2]?
Answer: Its half-life at 10 μM is > 20 h.

Question: Which “Clearance based on AUC 0-∞” value [3] does the source give for `CC[C@H](C)[C@@H]1NC(=O)[C@H](CC(=O)O)NC(=O)[C@H](Cc2ccc(O)cc2)NC(=O)[C@H](Cc2ccccc2)NC(=O)[C@H](CC(=O)O)NC(=O)[C@H](CCC(=O)O)NC(=O)[C@@H]2CSCc3cc(cc(c3)CSC[C@H](NC(C)=O)C(=O)N[C@@H](Cc3ccc(O)cc3)C(=O)N[C@@H](CC(N)=O)C(=O)N[C@@H](CCC(=O)O)C(=O)N[C@@H](Cc3ccccc3)C(=O)NCC(=O)N2)CSC[C@@H](C(N)=O)NC1=O` [17-69-07-N004, Ac-(17-69-07) (wildtype)] here?
Answer: Its value is 20.7 mL/min/kg.

Question: What about the “Volume of Distribution based on AUC 0-∞” value [3] of the same molecule?
Answer: Its value is 0.4 L/kg.

Question: Which results are given for `CC[C@H](C)[C@@H]1NC(=O)[C@H](CC(=O)O)NC(=O)[C@H](Cc2ccc(O)cc2)NC(=O)[C@H](Cc2ccccc2)NC(=O)[C@H](CC(=O)O)NC(=O)[C@H](CCC(=O)O)NC(=O)[C@@H]2CSCc3cc(cc(c3)CSC[C@H](NC(=O)[C@H](C)NC(=O)CN(C)C(=O)CN(C)C(=O)CN(C)C(=O)CN(C)C(=O)CN(C)C(=O)CN(C)C(=O)CN(C)C(=O)CN(C)C(=O)CN(C)C(=O)CN(C)C(=O)CNC(=O)CCCSSCCC(=O)N(C)[C@@H](C)C(=O)O[C@H]3CC(=O)N(C)c4cc(cc(OC)c4Cl)C/C(C)=C/C=C/[C@@H](OC)[C@@]4(O)C[C@H](OC(=O)N4)[C@@H](C)[C@@H]4O[C@@]34C)C(=O)N[C@@H](Cc3ccc(O)cc3)C(=O)N[C@@H](CC(N)=O)C(=O)N[C@@H](CCC(=O)O)C(=O)N[C@@H](Cc3ccccc3)C(=O)NCC(=O)N2)CSC[C@@H](C(N)=O)NC1=O` [BT17BDC-9] (X3-G[Sar][Sar][Sar][Sar][Sar][Sar][Sar][Sar][Sar][Sar]ACYNEFGCEDFYDIC-NH2; linker 13-19-26 via TBMB)?
Answer: weight of the animals during treatment [4]: largely stable; reduction in tumour volume compared to vehicle control ([4]; after 9 days post injection): significant reduction in tumour volume; ED50, effective dose to achieve 50% tumour AUC reduction [5]: 2.1 ± 1.1^b mg/kg

Question: For `CC[C@H](C)[C@@H]([C@@H](CC(=O)N1CCC[C@H]1[C@H](OC)[C@@H](C)C(=O)N[C@H](C)[C@@H](O)c1ccccc1)OC)N(C)C(=O)[C@@H](NC(=O)[C@H](C(C)C)N(C)C(=O)OCc1ccc(NC(=O)[C@H](CCCNC(N)=O)NC(=O)[C@@H](NC(=O)CCCC(=O)NCC(=O)N(C)CC(=O)N(C)CC(=O)N(C)CC(=O)N(C)CC(=O)N(C)CC(=O)N(C)CC(=O)N(C)CC(=O)N(C)CC(=O)N(C)CC(=O)N(C)CC(=O)N[C@@H](C)C(=O)N[C@H]2CSCc3cc4cc(c3)CSC[C@H](NC(=O)CNC(=O)[C@H](Cc3ccccc3)NC(=O)[C@H](CCC(=O)O)NC(=O)[C@H](CC(N)=O)NC(=O)[C@H](Cc3ccc(O)cc3)NC2=O)C(=O)N[C@@H](CCC(=O)O)C(=O)N[C@@H](CC(=O)O)C(=O)N[C@@H](Cc2ccccc2)C(=O)N[C@@H](Cc2ccc(O)cc2)C(=O)N[C@@H](CC(=O)O)C(=O)N[C@@H]([C@@H](C)CC)C(=O)N[C@H](C(N)=O)CSC4)C(C)C)cc1)C(C)C` [BT17BDC-1] (I: G[Sar][Sar][Sar][Sar][Sar][Sar][Sar][Sar][Sar][Sar]ACYNEFGCEDFYDIC-NH2 / II: V[Cit][PABC][NMeV]V[Dil][Dolaproine]-X4; linker I:13-I:19-I:26 via TBMB; linker I:N-II:N via Glutaryl), which “weight of the animals during treatment” value [4] is on record?
Answer: Its value is “largely stable”.
